For three compounds, IC50 and Kd results are on record in ChEMBL document CHEMBL3351292, “Structure-Based Design and Synthesis of Potent Cyclic Peptides Inhibiting the YAP-TEAD Protein-Protein Interaction” (ACS Med Chem Lett, 2014).

The term IC50 denotes the concentration that gives 50% inhibition. A word on the Kd: it is a measure of binding affinity in units of concentration.

Where a SMILES comes first, the peptide text is derived from it. Bridges are numbered along the chain shown (N, C = ends). [ ]: non-standard residue; d: D form. hCys = N[C@@H](CCS)C(=O)O; Nle = CCCC[C@H](N)C(=O)O

Test [1] deals with T1, Transcriptional coactivator YAP1/Transcriptional enhancer factor TEF-1 (Homo sapiens, UniProt P28347). Kind of test: Inhibition of YAP/ GST-TEAD1 (unknown origin) interaction by surface plasmon resonance assay. Type of test: protein assay. A general note: In SPR one partner is held on a chip, and binding of the other changes the refractive index at the surface.
T1 sequence (P46937 whole entry): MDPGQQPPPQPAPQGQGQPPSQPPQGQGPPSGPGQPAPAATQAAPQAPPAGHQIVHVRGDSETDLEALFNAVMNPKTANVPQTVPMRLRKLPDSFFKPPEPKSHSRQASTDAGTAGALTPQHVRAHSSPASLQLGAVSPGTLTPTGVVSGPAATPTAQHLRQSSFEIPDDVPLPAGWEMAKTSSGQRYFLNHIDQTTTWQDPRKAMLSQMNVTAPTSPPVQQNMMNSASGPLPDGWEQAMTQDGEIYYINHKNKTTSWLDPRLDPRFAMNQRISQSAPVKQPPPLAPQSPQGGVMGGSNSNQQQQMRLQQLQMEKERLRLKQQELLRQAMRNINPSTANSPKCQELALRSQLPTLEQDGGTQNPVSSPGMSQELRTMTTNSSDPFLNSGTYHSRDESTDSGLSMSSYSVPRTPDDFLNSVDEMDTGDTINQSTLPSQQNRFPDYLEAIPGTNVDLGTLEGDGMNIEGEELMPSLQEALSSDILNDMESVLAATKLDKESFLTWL
T1 sequence (P28347 whole entry): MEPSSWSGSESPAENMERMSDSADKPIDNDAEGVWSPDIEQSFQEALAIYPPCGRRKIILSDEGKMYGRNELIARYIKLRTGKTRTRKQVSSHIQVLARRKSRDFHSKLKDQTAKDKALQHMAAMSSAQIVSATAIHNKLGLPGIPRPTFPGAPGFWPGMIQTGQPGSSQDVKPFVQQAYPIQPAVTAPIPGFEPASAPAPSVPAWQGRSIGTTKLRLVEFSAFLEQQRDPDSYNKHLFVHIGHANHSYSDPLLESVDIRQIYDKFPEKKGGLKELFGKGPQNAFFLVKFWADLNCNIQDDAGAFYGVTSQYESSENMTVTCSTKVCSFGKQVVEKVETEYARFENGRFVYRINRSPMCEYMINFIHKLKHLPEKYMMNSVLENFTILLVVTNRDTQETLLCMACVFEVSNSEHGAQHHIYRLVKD
Test [2] has as its target T1, Transcriptional coactivator YAP1/Transcriptional enhancer factor TEF-1. In words: Inhibition of YAP/ GST-TEAD1 interaction in human Bel-7404 cells […]. The test is classed as cell-based, Bel7404.

As to `CCCC[C@@H]1NC(=O)[C@H](CCCCN)NC(=O)[C@H](CCCNC(=N)N)NC(=O)[C@H](CC(C)C)NC(=O)[C@@H](NC(=O)[C@H](CCSC)NC(=O)[C@@H]2CCCN2C(=O)[C@@H](NC(C)=O)C(C)C)CCSSC[C@@H](C(=O)N[C@@H](CCCCN)C(=O)N2CCC[C@H]2C(=O)N2CCC[C@H]2C(=O)N[C@@H](CCC(=O)O)C(N)=O)NC(=O)[C@H](Cc2ccccc2)NC(=O)[C@H](CO)NC(=O)[C@H](C)NC(=O)[C@@H]2CCCN2C1=O`, the IC50 in test [1] amounted to 150 nM. Further, the dissociation constant Kd in test [2] was 39 nM.
The corresponding values for `CCCCC[C@@H]1NC(=O)[C@H](CCCCN)NC(=O)[C@H](CCCNC(=N)N)NC(=O)[C@H](CC(C)C)NC(=O)[C@@H](NC(=O)[C@H](CCSC)NC(=O)[C@@H]2CCCN2C(=O)[C@@H](NC(C)=O)C(C)C)CCSSC[C@@H](C(=O)N[C@@H](CCCCN)C(=O)N2CCC[C@H]2C(=O)N2CCC[C@H]2C(=O)N[C@@H](CCC(=O)O)C(N)=O)NC(=O)[C@H](Cc2ccccc2)NC(=O)[C@H](CO)NC(=O)[C@H](C)NC(=O)[C@@H]2CCCN2C1=O` are 42 nM and 18 nM.
Turning to `CCCC[C@@H]1NC(=O)[C@H](CCCCN)NC(=O)[C@H](CCCNC(=N)N)NC(=O)[C@H](CC(C)C)NC(=O)[C@@H](NC(=O)[C@H](CCSC)NC(=O)[C@@H]2CCCN2C(=O)[C@@H](NC(C)=O)C(C)C)CCSSC[C@@H](C(=O)N[C@@H](CCCCN)C(=O)N2CCC[C@H]2C(=O)N2CCC[C@H]2C(=O)N[C@@H](CCC(=O)O)C(N)=O)NC(=O)[C@H](Cc2ccccc2)NC(=O)[C@H](CO)NC(=O)[C@H](CC(=O)O)NC(=O)[C@@H]2CCCN2C1=O` (Ac-VPM[hCys]LRK[Nle]PDSFCKPPE-NH2; disulfide 4-13), the IC50 in test [1] was 1700 nM. The Kd in test [2] amounted to 211 nM.
